According to ChEMBL document CHEMBL4507261, “Data for DCP probe A-192621” (2021):

Assays:
[1] = biological target: Type-2 angiotensin II receptor (Homo sapiens) (UniProt P50052); experiment: AT2 (h) Eurofins-Cerep binding assay; details: filed as agonist, Compound concentration 10.0 uM
[2] = biological target: Tyrosine-protein kinase Yes (Homo sapiens) (UniProt P07947); details: Compound concentration 1000.0 nM
[3] = biological target: BMP-2-inducible protein kinase (Homo sapiens) (UniProt Q9NSY1); details: Compound concentration 1000.0 nM
[4] = tested on: Epidermal growth factor receptor (Homo sapiens), P00533 [L861Q]; details: Compound concentration 1000.0 nM
[5] = biological target: Membrane-associated tyrosine- and threonine-specific cdc2-inhibitory kinase (Homo sapiens) (UniProt Q99640); details: Compound concentration 1000.0 nM
Chain of Membrane-associated tyrosine- and threonine-specific cdc2-inhibitory kinase (Homo sapiens) (Q99640 whole entry): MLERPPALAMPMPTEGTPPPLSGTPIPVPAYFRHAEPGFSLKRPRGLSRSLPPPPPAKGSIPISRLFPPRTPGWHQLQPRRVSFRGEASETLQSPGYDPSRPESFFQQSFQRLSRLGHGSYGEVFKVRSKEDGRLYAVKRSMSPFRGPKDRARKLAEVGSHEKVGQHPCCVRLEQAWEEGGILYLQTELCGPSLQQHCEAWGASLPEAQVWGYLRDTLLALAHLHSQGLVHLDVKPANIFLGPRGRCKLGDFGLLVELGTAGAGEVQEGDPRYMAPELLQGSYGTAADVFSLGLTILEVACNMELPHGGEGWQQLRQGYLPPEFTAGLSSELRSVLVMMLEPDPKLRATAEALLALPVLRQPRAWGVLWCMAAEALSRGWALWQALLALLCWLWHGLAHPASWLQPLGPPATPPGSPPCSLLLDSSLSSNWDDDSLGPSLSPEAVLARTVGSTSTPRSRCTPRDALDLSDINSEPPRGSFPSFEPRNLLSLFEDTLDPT

[6] = tested on: Epidermal growth factor receptor (Homo sapiens), P00533 [T790M]; details: Compound concentration 1000.0 nM
[7] = tested on: Receptor-type tyrosine-protein kinase FLT3 (Homo sapiens), P36888 [D835V]; details: Compound concentration 1000.0 nM
[8] = biological target: RAC-alpha serine/threonine-protein kinase (Homo sapiens) (UniProt P31749); details: Compound concentration 1000.0 nM
[9] = biological target: T1, 5-hydroxytryptamine receptor 2C (Homo sapiens) (UniProt P28335); experiment: 5-HT2C (h) Eurofins-Cerep binding assay; parameters: ligand concentration 1 nM; details: filed as antagonist, Compound concentration 10.0 uM
T1 sequence (whole entry): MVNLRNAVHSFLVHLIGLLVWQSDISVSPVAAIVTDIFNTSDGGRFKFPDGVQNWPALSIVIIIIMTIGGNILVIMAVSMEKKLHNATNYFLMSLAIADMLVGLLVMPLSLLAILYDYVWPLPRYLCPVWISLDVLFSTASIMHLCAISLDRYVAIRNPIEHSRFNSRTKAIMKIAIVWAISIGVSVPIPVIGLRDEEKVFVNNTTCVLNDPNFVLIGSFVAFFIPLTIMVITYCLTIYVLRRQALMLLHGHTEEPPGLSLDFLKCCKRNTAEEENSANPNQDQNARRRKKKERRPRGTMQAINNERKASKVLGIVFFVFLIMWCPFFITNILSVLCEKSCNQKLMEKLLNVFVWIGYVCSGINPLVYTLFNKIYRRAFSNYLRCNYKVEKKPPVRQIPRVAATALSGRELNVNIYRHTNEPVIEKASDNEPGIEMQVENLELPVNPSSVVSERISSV

[10] = biological target: Serine/threonine-protein kinase LATS2 (Homo sapiens) (UniProt Q9NRM7); details: Compound concentration 1000.0 nM
[11] = biological target: Serine/threonine-protein kinase PLK1 (Homo sapiens) (UniProt P53350); details: Compound concentration 1000.0 nM
[12] = biological target: SRSF protein kinase 2 (Homo sapiens) (UniProt P78362); details: Compound concentration 1000.0 nM
[13] = biological target: Serine/threonine-protein kinase PAK 1 (Homo sapiens) (UniProt Q13153); details: Compound concentration 1000.0 nM
[14] = biological target: Angiotensin-converting enzyme (Homo sapiens) (UniProt P12821); experiment: ACE (h) Eurofins-Cerep enzyme and uptake assay; details: Compound concentration 10.0 uM
[15] = biological target: Epithelial discoidin domain-containing receptor 1 (Homo sapiens) (UniProt Q08345); details: Compound concentration 1000.0 nM
[16] = biological target: Phosphatidylinositol 5-phosphate 4-kinase type-2 beta (Homo sapiens) (UniProt P78356); details: Compound concentration 1000.0 nM
[17] = biological target: Bone morphogenetic protein receptor type-1B (Homo sapiens) (UniProt O00238); details: Compound concentration 1000.0 nM
[18] = biological target: Mitogen-activated protein kinase 3 (Homo sapiens) (UniProt P27361); details: Compound concentration 1000.0 nM
Chain of Mitogen-activated protein kinase 3 (Homo sapiens) (P27361 whole entry): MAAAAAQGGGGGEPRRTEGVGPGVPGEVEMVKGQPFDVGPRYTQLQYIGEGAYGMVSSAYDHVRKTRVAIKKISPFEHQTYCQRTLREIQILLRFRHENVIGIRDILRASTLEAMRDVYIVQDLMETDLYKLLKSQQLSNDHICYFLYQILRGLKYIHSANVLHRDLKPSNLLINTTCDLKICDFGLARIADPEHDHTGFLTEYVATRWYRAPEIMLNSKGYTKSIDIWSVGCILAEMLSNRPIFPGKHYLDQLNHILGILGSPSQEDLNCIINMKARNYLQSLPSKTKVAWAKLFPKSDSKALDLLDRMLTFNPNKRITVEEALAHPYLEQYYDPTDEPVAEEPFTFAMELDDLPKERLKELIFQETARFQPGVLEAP

[19] = biological target: Proto-oncogene tyrosine-protein kinase ROS (Homo sapiens) (UniProt P08922); details: Compound concentration 1000.0 nM
Chain of Proto-oncogene tyrosine-protein kinase ROS (Homo sapiens) (P08922 whole entry): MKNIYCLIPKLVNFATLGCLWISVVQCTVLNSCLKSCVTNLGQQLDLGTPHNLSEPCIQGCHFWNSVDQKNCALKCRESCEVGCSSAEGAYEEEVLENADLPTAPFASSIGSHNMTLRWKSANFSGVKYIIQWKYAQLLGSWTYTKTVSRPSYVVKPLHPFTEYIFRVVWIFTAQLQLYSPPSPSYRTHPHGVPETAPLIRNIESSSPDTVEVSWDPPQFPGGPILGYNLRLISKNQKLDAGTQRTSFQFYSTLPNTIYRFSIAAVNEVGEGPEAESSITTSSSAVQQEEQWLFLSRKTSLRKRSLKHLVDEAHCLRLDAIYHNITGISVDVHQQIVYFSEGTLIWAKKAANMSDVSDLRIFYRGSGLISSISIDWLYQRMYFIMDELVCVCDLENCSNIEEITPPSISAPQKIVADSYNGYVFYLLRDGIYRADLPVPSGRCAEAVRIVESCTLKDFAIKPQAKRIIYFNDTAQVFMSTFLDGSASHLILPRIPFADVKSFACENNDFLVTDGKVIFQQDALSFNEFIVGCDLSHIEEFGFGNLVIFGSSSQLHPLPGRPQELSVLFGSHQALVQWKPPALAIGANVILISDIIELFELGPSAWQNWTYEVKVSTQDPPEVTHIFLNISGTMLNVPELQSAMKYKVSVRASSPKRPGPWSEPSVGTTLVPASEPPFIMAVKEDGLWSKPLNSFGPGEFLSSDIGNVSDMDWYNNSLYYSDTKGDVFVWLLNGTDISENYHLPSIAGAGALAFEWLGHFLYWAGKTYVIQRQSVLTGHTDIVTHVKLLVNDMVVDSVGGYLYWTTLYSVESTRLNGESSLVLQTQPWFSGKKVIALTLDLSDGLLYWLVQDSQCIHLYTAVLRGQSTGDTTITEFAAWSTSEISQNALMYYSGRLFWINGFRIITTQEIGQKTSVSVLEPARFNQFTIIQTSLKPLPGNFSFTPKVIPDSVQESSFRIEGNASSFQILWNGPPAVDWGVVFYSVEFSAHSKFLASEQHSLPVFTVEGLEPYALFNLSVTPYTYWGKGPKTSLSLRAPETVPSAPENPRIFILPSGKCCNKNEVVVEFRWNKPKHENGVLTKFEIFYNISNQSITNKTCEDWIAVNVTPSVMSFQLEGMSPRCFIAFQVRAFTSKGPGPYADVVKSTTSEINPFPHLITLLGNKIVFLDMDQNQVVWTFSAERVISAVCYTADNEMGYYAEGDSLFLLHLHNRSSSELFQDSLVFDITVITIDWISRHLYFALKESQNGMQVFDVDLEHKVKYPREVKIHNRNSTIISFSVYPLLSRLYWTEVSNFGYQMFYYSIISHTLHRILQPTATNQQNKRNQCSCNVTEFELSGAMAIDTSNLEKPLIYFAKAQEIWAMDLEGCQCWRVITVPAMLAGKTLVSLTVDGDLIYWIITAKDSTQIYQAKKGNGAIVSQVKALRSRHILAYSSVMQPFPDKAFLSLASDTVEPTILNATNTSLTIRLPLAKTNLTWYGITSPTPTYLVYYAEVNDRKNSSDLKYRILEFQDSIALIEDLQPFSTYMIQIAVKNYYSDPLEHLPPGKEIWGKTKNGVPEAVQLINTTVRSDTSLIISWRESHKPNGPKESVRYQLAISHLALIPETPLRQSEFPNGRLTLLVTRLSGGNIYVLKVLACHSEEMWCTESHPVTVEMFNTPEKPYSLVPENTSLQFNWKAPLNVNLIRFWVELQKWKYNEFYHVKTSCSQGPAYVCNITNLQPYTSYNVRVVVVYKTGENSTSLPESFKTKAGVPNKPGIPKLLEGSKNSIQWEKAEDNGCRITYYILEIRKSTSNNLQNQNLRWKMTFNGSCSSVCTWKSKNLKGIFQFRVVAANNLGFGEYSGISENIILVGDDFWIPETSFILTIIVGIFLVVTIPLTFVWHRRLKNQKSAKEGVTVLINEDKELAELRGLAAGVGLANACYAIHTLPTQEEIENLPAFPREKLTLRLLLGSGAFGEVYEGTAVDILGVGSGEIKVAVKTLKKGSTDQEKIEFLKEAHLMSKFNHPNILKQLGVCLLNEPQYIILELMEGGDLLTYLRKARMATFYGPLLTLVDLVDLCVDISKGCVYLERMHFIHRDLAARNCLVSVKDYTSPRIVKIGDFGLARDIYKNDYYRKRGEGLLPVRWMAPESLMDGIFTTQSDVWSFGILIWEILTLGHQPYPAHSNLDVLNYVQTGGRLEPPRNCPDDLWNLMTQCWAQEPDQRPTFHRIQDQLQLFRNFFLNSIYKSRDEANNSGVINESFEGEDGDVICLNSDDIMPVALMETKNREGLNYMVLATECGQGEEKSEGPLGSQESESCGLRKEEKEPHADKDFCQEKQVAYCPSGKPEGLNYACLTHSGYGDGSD

[20] = biological target: Mast/stem cell growth factor receptor Kit (Homo sapiens) (UniProt P10721); details: Compound concentration 1000.0 nM
[21] = biological target: Motilin receptor (Homo sapiens) (UniProt O43193); experiment: motilin (h Eurofins-Cerep binding assay; parameters: ligand concentration 0.05 nM; details: filed as agonist, Compound concentration 10.0 uM
[22] = tested on: Phosphatidylinositol 4,5-bisphosphate 3-kinase catalytic subunit alpha isoform (Homo sapiens), P42336 [I800L]; details: Compound concentration 1000.0 nM
[23] = biological target: Mitogen-activated protein kinase 8 (Homo sapiens) (UniProt P45983); details: Compound concentration 1000.0 nM
[24] = biological target: Ephrin type-A receptor 8 (Homo sapiens) (UniProt P29322); details: Compound concentration 1000.0 nM
[25] = biological target: 5-hydroxytryptamine receptor 7 (Homo sapiens) (UniProt P34969); experiment: 5-HT7 (h) Eurofins-Cerep binding assay; parameters: ligand concentration 4 nM; details: filed as agonist, Compound concentration 10.0 uM
[26] = biological target: Mu-type opioid receptor (Homo sapiens) (UniProt P35372); experiment: mu (MOP) (h) Eurofins-Cerep binding assay; details: filed as agonist, Compound concentration 10.0 uM
[27] = biological target: Vasopressin V1a receptor (Homo sapiens) (UniProt P37288); experiment: V1 a (h) Eurofins-Cerep binding assay; parameters: ligand concentration 0.3 nM; details: filed as agonist, Compound concentration 10.0 uM
[28] = tested on: Hepatocyte growth factor receptor (Homo sapiens), P08581 [Y1235D]; details: Compound concentration 1000.0 nM
[29] = biological target: Cyclin-dependent kinase 4 (Homo sapiens) (UniProt P11802); details: Compound concentration 1000.0 nM
Chain of Cyclin-dependent kinase 4 (Homo sapiens) (P11802 whole entry): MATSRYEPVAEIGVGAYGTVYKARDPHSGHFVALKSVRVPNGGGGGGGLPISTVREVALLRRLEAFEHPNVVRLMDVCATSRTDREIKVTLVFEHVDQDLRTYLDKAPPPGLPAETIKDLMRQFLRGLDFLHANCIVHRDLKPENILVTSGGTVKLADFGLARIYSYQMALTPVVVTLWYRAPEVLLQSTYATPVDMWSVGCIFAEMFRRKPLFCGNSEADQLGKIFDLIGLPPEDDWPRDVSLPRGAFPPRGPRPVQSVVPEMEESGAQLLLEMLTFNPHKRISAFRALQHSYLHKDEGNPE

[30] = biological target: Serine/threonine-protein kinase NLK (Homo sapiens) (UniProt Q9UBE8); details: Compound concentration 1000.0 nM
[31] = biological target: Serine/threonine-protein kinase MRCK gamma (Homo sapiens) (UniProt Q6DT37); details: Compound concentration 1000.0 nM
[32] = biological target: Serine/threonine-protein kinase PLK2 (Homo sapiens) (UniProt Q9NYY3); details: Compound concentration 1000.0 nM
[33] = biological target: Cyclin-dependent kinase 13 (Homo sapiens) (UniProt Q14004); details: Compound concentration 1000.0 nM
Chain of Cyclin-dependent kinase 13 (Homo sapiens) (Q14004 whole entry, looked up): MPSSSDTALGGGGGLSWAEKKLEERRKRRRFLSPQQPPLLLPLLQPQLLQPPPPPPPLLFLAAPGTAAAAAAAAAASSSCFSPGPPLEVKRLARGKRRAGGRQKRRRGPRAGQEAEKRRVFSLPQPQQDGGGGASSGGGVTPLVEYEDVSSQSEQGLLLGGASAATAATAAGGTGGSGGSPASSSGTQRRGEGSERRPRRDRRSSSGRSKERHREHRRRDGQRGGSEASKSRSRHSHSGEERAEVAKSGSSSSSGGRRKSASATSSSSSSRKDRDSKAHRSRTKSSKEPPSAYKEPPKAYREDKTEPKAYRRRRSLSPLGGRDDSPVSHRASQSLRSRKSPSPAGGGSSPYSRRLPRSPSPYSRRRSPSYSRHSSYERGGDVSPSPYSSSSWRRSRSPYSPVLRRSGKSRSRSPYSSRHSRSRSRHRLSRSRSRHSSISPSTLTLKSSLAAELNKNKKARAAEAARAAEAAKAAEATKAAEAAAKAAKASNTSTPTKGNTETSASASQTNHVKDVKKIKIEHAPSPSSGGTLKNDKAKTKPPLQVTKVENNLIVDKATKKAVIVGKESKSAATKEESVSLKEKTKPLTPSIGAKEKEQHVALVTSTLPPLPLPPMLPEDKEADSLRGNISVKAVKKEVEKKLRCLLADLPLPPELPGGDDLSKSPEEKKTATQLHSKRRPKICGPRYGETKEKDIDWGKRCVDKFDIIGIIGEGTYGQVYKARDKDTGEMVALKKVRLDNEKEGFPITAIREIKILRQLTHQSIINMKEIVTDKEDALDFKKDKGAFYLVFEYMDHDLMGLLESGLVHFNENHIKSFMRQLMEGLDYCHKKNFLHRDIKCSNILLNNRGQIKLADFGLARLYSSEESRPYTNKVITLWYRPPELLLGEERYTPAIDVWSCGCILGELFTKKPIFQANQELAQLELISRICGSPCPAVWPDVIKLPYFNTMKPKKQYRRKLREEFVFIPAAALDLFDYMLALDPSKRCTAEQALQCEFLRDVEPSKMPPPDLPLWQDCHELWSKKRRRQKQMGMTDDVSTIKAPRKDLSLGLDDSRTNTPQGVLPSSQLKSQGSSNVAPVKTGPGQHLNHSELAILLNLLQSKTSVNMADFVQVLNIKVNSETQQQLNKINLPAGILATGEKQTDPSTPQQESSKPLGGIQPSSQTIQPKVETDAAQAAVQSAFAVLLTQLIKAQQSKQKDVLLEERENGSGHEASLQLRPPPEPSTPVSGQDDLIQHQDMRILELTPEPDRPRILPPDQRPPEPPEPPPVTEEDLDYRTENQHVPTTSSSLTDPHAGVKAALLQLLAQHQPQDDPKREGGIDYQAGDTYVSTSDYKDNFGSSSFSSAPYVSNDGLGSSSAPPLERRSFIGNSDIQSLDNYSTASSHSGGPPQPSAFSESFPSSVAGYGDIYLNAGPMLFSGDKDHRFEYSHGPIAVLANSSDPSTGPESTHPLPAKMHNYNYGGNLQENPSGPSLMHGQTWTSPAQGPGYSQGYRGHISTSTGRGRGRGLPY

[34] = biological target: Serine/threonine-protein kinase 38-like (Homo sapiens) (UniProt Q9Y2H1); details: Compound concentration 1000.0 nM
[35] = biological target: Protein-tyrosine kinase 6 (Homo sapiens) (UniProt Q13882); details: Compound concentration 1000.0 nM
[36] = biological target: Mitogen-activated protein kinase kinase kinase 12 (Homo sapiens) (UniProt Q12852); details: Compound concentration 1000.0 nM
[37] = biological target: Serine/threonine-protein kinase BRSK1 (Homo sapiens) (UniProt Q8TDC3); details: Compound concentration 1000.0 nM
[38] = tested on: Epidermal growth factor receptor (Homo sapiens), P00533 [UNDEFINED MUTATION]; details: Compound concentration 1000.0 nM
[39] = biological target: Serine/threonine-protein kinase D1 (Homo sapiens) (UniProt Q15139); details: Compound concentration 1000.0 nM

SMILES | % Inhibition of Control Specific Binding (Mean n=2) [1] [%] | residual activity [2] [%] | residual activity [3] [%] | residual activity [4] [%] | residual activity [5] [%] | residual activity [6] [%] | residual activity [7] [%] | residual activity [8] [%] | residual activity [10] [%] | residual activity [11] [%] | residual activity [12] [%] | residual activity [13] [%] | % Inhibition of Control Values (Mean n=2) [14] [%] | residual activity [15] [%] | residual activity [16] [%] | residual activity [17] [%] | residual activity [18] [%] | residual activity [19] [%] | residual activity [20] [%] | % Inhibition of Control Specific Binding (Mean n=2) [21] [%] | also measured
CCCOc1ccc([C@H]2[C@H](C(=O)O)[C@@H](c3ccc4c(c3)OCO4)CN2CC(=O)Nc2c(CC)cccc2CC)cc1 [A-192621] | 2.5 | 99 | 87 | 100 | 74 | 82 | 88 | 97 | 97 | 80 | 96 | 89 | -12.6 | 100 | 97 | 61 | 93 | 98 | 92 | -17.9 | % Inhibition of Control Specific Binding (Mean n=2) [9]: 1.2%; residual activity [22]: 81%; residual activity [23]: 70%; residual activity [24]: 98%; % Inhibition of Control Specific Binding (Mean n=2) [25]: 1.9%; % Inhibition of Control Specific Binding (Mean n=2) [26]: 8.3%; % Inhibition of Control Specific Binding (Mean n=2) [27]: 7.4%; residual activity [28]: 100%; residual activity [29]: 89%; residual activity [30]: 100%; residual activity [31]: 79%; residual activity [32]: 79%; residual activity [33]: 45%; residual activity [34]: 88%; residual activity [35]: 84%; residual activity [36]: 52%; residual activity [37]: 100%; residual activity [38]: 100%; residual activity [39]: 94%
CCCOc1ccc([C@@H]2[C@@H](C(=O)O)[C@H](c3ccc4c(c3)OCO4)CN2CC(=O)Nc2c(CC)cccc2CC)cc1 [A-1806262] | 20.8 | 90 | 92 | 100 | 100 | 93 | 62 | 100 | 100 | 95 | 100 | 98 | -13.7 | 89 | 80 | 82 | 93 | 90 | 82 | 4.4 | % Inhibition of Control Specific Binding [9]: 0%; residual activity [22]: 71%; residual activity [23]: 87%; residual activity [24]: 97%; % Inhibition of Control Specific Binding (Mean n=2) [25]: 0.4%; % Inhibition of Control Specific Binding (Mean n=2) [26]: 11.1%; % Inhibition of Control Specific Binding (Mean n=2) [27]: 15%; residual activity [28]: 99%; residual activity [29]: 96%; residual activity [30]: 100%; residual activity [31]: 57%; residual activity [32]: 86%; residual activity [33]: 81%; residual activity [34]: 100%; residual activity [35]: 83%; residual activity [36]: 100%; residual activity [37]: 100%; residual activity [38]: 100%; residual activity [39]: 96%
